These are literature values, as cited in patent US20060074243A1, “Hydroxamic acid and amide compounds and their use as protease inhibitors” (Pharmacia Corporation, priority 2002, published 2006).

The data set relates to solid tumor cancers (colorectal, pancreatic, ovarian, and prostate). The settings on record: cited from earlier work.

Structures are written as SMILES.

As to `CNC(=O)[C@@H](NC(=O)[C@H](CC(C)C)[C@H](O)C(=O)NO)C(C)(C)C` [Marimastat], the “most common drug-related toxicity” value (clinical trials) was “musculoskeletal pain and stiffness”. In addition, the “rise of cancer-specific antigens used as surrogate markers for biological activity” value (patients with advanced, rapidly progressive, treatment-refractory solid tumor cancers) is recorded as “dose-related reduction”.
